# Reference: patent US20240368120A1 (Terns Pharmaceuticals, Inc., priority 2023, published 2024)
# Target: T1, human GLP-1R receptor (Homo sapiens, UniProt P43220)
# T1 construct: expressed in transfected cells
# Test: GLP-1R low expression cell assay (cAMP TR-FRET, CHO-K1_hGLP-1Rlow_clone10 cells)
# Type: cell-based
# Conditions: for EC50: cAMP TR-FRET, 30 min at 25° C.; for Emax: maximum activation relative to control GLP-1 peptide agonist
# Outline: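 CHO-K1 cells stably expressing low surface human GLP-1R (clone10), 1,000 cells/well, exposed to 10-point 3-fold compound dilutions for 30 min at 25 °C. cAMP measured by TR-FRET (Eu-cAMP tracer/ULight-anti-cAMP, 15 min). EC50 from Hill fit of duplicate percent activation relative to a parallel GLP-1 control agonist.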
# T1 sequence (P43220 24-463): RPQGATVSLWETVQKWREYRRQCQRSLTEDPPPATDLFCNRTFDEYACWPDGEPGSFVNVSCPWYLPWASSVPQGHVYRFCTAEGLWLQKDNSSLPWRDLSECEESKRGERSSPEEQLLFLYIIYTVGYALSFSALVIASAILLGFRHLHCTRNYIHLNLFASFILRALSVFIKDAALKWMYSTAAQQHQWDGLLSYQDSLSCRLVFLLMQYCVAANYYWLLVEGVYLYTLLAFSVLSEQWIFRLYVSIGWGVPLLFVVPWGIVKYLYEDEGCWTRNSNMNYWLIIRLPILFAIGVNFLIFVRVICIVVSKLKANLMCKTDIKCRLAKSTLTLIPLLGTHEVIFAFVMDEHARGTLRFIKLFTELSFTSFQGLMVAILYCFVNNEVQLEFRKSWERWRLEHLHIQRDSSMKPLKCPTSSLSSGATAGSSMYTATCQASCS
SMILES,EC50 [nM],Emax [%]
"Cn1c(CN2CCC(c3ncc(F)c(OCc4ccc(Cl)cc4F)n3)CC2)nc2c(OC(F)F)cc(C(=O)O)cc21 [Compound 356, 2-((4-(4-((4-Chloro-2-fluorobenzyl)oxy)-5-fluoropyrimidin-2-yl)piperidin-1-yl)methyl)-4-(difluoromethoxy)-1-methyl-1H-benzo[d]imidazole-6-carboxylic acid]",10 to 100,> 85
"Cn1c(CN2CCC(c3nc(OCc4ccc(Cl)cc4F)ncc3F)CC2)nc2c(OC(F)F)cc(C(=O)O)cc21 [Compound 375, 2-((4-(2-((4-Chloro-2-fluorobenzyl)oxy)-5-fluoropyrimidin-4-yl)piperidin-1-yl)methyl)-4-(difluoromethoxy)-1-methyl-1H-benzo[d]imidazole-6-carboxylic acid]",100 to 1000,> 85
"COc1cc(F)ccc1COc1cccc(C2CCN(Cc3nc4c(OC(F)F)cc(C(=O)O)cc4n3C)CC2)n1 [Compound 231, 4-(Difluoromethoxy)-2-((4-(6-((4-fluoro-2-methoxybenzyl)oxy)pyridin-2-yl)piperidin-1-yl)methyl)-1-methyl-1H-benzo[d]imidazole-6-carboxylic acid]",10 to 100,> 85
"COc1c(OCc2ccc(C#N)cc2F)cccc1C1CCN(Cc2nc3c(OC(F)F)cc(C(=O)O)cc3n2C)CC1 [Compound 144, 2-((4-(3-((4-Cyano-2-fluorobenzyl)oxy)-2-methoxyphenyl)piperidin-1-yl)methyl)-4-(difluoromethoxy)-1-methyl-1H-benzo[d]imidazole-6-carboxylic acid]",> 1000,< 25
"Cn1c(CN2CCC(c3cccc(OCc4c(F)cc(Cl)cc4F)n3)CC2)nc2c(OC(F)F)cc(C(=O)O)cc21 [Compound 153, 2-((4-(6-((4-Chloro-2,6-difluorobenzyl)oxy)pyridin-2-yl)piperidin-1-yl)methyl)-4-(difluoromethoxy)-1-methyl-1H-benzo[d]imidazole-6-carboxylic acid]",10 to 100,> 85
"Cn1c(CN2CCC(c3cccc4c3O[C@@H](c3ccc(Cl)cc3F)CO4)CC2)nc2c(OC(F)F)cc(C(=O)O)cc21 [Compound 334, (S)-2-((4-(3-(4-Chloro-2-fluorophenyl)-2,3-dihydrobenzo[b][1,4]dioxin-5-yl)piperidin-1-yl)methyl)-4-(difluoromethoxy)-1-methyl-1H-benzo[d]imidazole-6-carboxylic acid]",10 to 100,> 85
"Cn1c(CN2CCC(c3cccc(OCc4ccccc4Cl)n3)CC2)nc2c(OC(F)F)cc(C(=O)O)cc21 [Compound 248, 2-((4-(6-((2-Chlorobenzyl)oxy)pyridin-2-yl)piperidin-1-yl)methyl)-4-(difluoromethoxy)-1-methyl-1H-benzo[d]imidazole-6-carboxylic acid]",100 to 1000,> 85
"Cn1c(CN2CCC(c3cccc(OCc4ccc(Cl)cc4)n3)CC2)nc2c(OC(F)F)cc(C(=O)O)cc21 [Compound 252, 2-((4-(6-((4-Chlorobenzyl)oxy)pyridin-2-yl)piperidin-1-yl)methyl)-4-(difluoromethoxy)-1-methyl-1H-benzo[d]imidazole-6-carboxylic acid]",10 to 100,
"Cn1c(CN2CCC(c3cccc(OCc4ccc(F)cc4)n3)CC2)nc2c(OC(F)F)cc(C(=O)O)cc21 [Compound 254, 4-(Difluoromethoxy)-2-((4-(6-((4-fluorobenzyl)oxy)pyridin-2-yl)piperidin-1-yl)methyl)-1-methyl-1H-benzo[d]imidazole-6-carboxylic acid]",100 to 1000,
"COc1cc(C(=O)O)cc2c1nc(CN1CCC(c3cccc4c3O[C@@](C)(c3ccc(Cl)cn3)O4)CC1)n2Cc1cncs1 [Compound 32, (S)-2-((4-(2-(5-Chloropyridin-2-yl)-2-methylbenzo[d][1,3]dioxol-4-yl)piperidin-1-yl)methyl)-4-methoxy-1-(thiazol-5-ylmethyl)-1H-benzo[d]imidazole-6-carboxylic acid]",< 10,
"Cn1c(CN2CCC(c3cccc(OCc4ccc(Cl)cc4F)n3)CC2)nc2c(OC(F)F)cc(C(=O)O)c(F)c21 [Compound 190, 2-((4-(6-((4-Chloro-2-fluorobenzyl)oxy)pyridin-2-yl)piperidin-1-yl)methyl)-4-(difluoromethoxy)-7-fluoro-1-methyl-1H-benzo[d]imidazole-6-carboxylic acid]",10 to 100,> 85
"Cn1c(CN2CCC(c3ccc4ccn(Cc5ccc(Cl)cc5F)c4n3)CC2)nc2c(OC(F)F)cc(C(=O)O)cc21 [Compound 205, 2-((4-(1-(4-Chloro-2-fluorobenzyl)-1H-pyrrolo[2,3-b]pyridin-6-yl)piperidin-1-yl)methyl)-4-(difluoromethoxy)-1-methyl-1H-benzo[d]imidazole-6-carboxylic acid]",> 1000,50 to 85
"O=C(O)c1cc(OC(F)F)c2nc(CN3CCC(c4cccc(OCc5ccc(Cl)cc5F)n4)CC3)n(CF)c2c1 [Compound 208, 2-((4-(6-((4-Chloro-2-fluorobenzyl)oxy)pyridin-2-yl)piperidin-1-yl)methyl)-4-(difluoromethoxy)-1-(fluoromethyl)-1H-benzo[d]imidazole-6-carboxylic acid]",10 to 100,> 85
"CO[C@H]1C[C@H](Oc2cc(C(=O)O)cc3c2nc(CN2CCC(c4cccc(OCc5ccc(C#N)cc5F)n4)CC2)n3C)C1 [Compound 317, 2-((4-(6-((4-Cyano-2-fluorobenzyl)oxy)pyridin-2-yl)piperidin-1-yl)methyl)-4-((1r,3r)-3-methoxycyclobutoxy)-1-methyl-1H-benzo[d]imidazole-6-carboxylic acid]",100 to 1000,> 85
"Cn1c(CN2CCC(c3ncccc3OCc3ccc(C#N)cc3F)CC2)nc2c(OC(F)F)cc(C(=O)O)cc21 [Compound 158, 2-((4-(3-((4-Cyano-2-fluorobenzyl)oxy)pyridin-2-yl)piperidin-1-yl)methyl)-4-(difluoromethoxy)-1-methyl-1H-benzo[d]imidazole-6-carboxylic acid]",> 1000,50 to 85
"COc1cc(C(=O)O)cc2c1nc(CN1CCC(c3cccc4c3OC[C@H](c3ccc(C#N)cc3F)O4)CC1)n2C [Compound 274, (S)-2-((4-(2-(4-Cyano-2-fluorophenyl)-2,3-dihydrobenzo[b][1,4]dioxin-5-yl)piperidin-1-yl)methyl)-4-methoxy-1-methyl-1H-benzo[d]imidazole-6-carboxylic acid]",> 1000,< 25
"N#Cc1ccc(COc2cccc(C3CCN(Cc4nc5c(N)nc(C(=O)O)cc5n4C[C@@H]4CCO4)CC3)n2)c(F)c1 [Compound 134, (S)-4-amino-2-((4-(6-((4-cyano-2-fluorobenzyl)oxy)pyridin-2-yl)piperidin-1-yl)methyl)-1-(oxetan-2-ylmethyl)-1H-imidazo[4,5-c]pyridine-6-carboxylic acid]",10 to 100,> 85
"COc1cc(C(=O)O)c(F)c2c1nc(CN1CCC(c3cccc(OCc4ccc(C#N)cc4F)n3)CC1)n2C[C@@H]1CCO1 [Compound 117, (S)-2-((4-(6-((4-Cyano-2-fluorobenzyl)oxy)pyridin-2-yl)piperidin-1-yl)methyl)-7-fluoro-4-methoxy-1-(oxetan-2-ylmethyl)-1H-benzo[d]imidazole-6-carboxylic acid]",< 10,> 85
"CCOc1cc(C(=O)O)cc2c1nc(CN1CCC(c3cccc4c3OC[C@@H](c3ccc(C#N)cc3F)O4)CC1)n2C [Compound 276, (R)-2-((4-(2-(4-Cyano-2-fluorophenyl)-2,3-dihydrobenzo[b][1,4]dioxin-5-yl)piperidin-1-yl)methyl)-4-ethoxy-1-methyl-1H-benzo[d]imidazole-6-carboxylic acid]",10 to 100,> 85
"COc1ccc(COc2cccc(C3CCN(Cc4nc5c(OC(F)F)cc(C(=O)O)cc5n4C)CC3)n2)c(F)c1 [Compound 228, 4-(Difluoromethoxy)-2-((4-(6-((2-fluoro-4-methoxybenzyl)oxy)pyridin-2-yl)piperidin-1-yl)methyl)-1-methyl-1H-benzo[d]imidazole-6-carboxylic acid]",10 to 100,> 85
"COc1cc(C(=O)O)cc2c1nc(CN1CCC(c3cccc(OCc4ccc(C#N)cc4F)n3)CC1)n2C(F)F [Compound 147, 2-((4-(6-((4-Cyano-2-fluorobenzyl)oxy)pyridin-2-yl)piperidin-1-yl)methyl)-1-(difluoromethyl)-4-methoxy-1H-benzo[d]imidazole-6-carboxylic acid]",100 to 1000,> 85
"COc1cc(C(=O)O)cc2c1nc(Cc1cc(F)c(-c3cccc(OCc4ccc(Cl)cc4F)n3)cc1F)n2C [Compound 282, 2-(4-(6-((4-Chloro-2-fluorobenzyl)oxy)pyridin-2-yl)-2,5-difluorobenzyl)-4-methoxy-1-methyl-1H-benzo[d]imidazole-6-carboxylic acid]",< 10,> 85
"CN(c1nc2c(OC(F)F)cc(C(=O)O)cc2n1C[C@@H]1CCO1)[C@H]1CC[C@@H](c2cccc(OCc3ccc(C#N)cc3F)n2)CC1 [Compound 131, 2-(((1s,4R)-4-(6-((4-cyano-2-fluorobenzyl)oxy)pyridin-2-yl)cyclohexyl) (methyl)amino)-4-(difluoromethoxy)-1-(((S)-oxetan-2-yl)methyl)-1H-benzo[d]imidazole-6-carboxylic acid]",100 to 1000,> 85
Cn1c(CN2CCC(c3cccc(OCc4ccc(OC(F)(F)F)cc4F)n3)CC2)nc2c(OC(F)F)cc(C(=O)O)cc21 [Compound 222],100 to 1000,> 85
"COc1cc(C(=O)O)cc2c1nc(CN1CC[C@@H](c3cccc(OCc4ccc(C#N)cc4F)n3)[C@@H]3C[C@@H]31)n2C[C@@H]1CCO1 [Compound 387, 2-(((1S,5R,6S)-5-(6-((4-cyano-2-fluorobenzyl)oxy)pyridin-2-yl)-2-azabicyclo[4.1.0]heptan-2-yl)methyl)-4-methoxy-1-(((S)-oxetan-2-yl)methyl)-1H-benzo[d]imidazole-6-carboxylic acid]",< 10,
